According to article PMC3448668, “Insulin-Like Growth Factor-I E-Peptide Activity Is Dependent on the IGF-I Receptor” (PLoS ONE, 2012):

How the values were obtained:
Assay type in all cases: cell-based, mouse
[1] = test system: ERK1/2 phosphorylation (MAPK signaling) in C2C12 cells; assay: ERK1/2 phosphorylation immunoblot after synthetic E-peptide treatment
Method: (§1) C2C12 (ATCC, Manassas, VA) cells were maintained in growth media (DMEM containing, 10% fetal bovine serum, and gentamicin). For signaling experiments, 2×10^4 cells were seeded in 6-well plates in growth media and allowed to attach and grow overnight. The next day, cells were starved overnight in growth media without serum. On the third day, cells were treated with synthetic E-peptides and/or recombinant human IGF-I (Gemini Bio-Products West Sacramento, CA) for the time periods indicated in figures, and the cells were processed for immunoblotting as described below. For IGF-IR inhibition, 100 nM NVPAEW541 [47] diluted in DMSO or DMSO only was added to starved cells 90 minutes before and during treatment with synthetic peptides.
(§2) Signaling pathway activation was determined by immunoblotting.

C2C12 cells [2] = assay: BrdU cell proliferation assay (plate and slide); conditions: for Effect of inhibitor on IGF-I induced proliferation: C2C12 BrdU plate assay, IGF-I 10 nM, PD 50 µM, NVP 100 nM
Method: Proliferation was measured using a 5-bromo-2P-deoxyuridine (BrdU) plate and slide assays (Roche, Indianapolis, IN). For the plate assay, 5×10^3 C2C12 cells were seeded in 96-well plates. Cells were starved for 6 hours, and treated with synthetic E-peptides or recombinant IGF-I overnight. BrdU was added for incorporation for 2 hours before cell lysis and BrdU staining. For MAPK inhibition, a MEK inhibitor was added to the media (PD 098059, Sigma, 50 µM). For IGF-IR inhibition, 100 nM NVPAEW541 was added to the media. The slide assay was done as above, except with 2×10^4 C2C12 cells in 24-well plates on glass cover slips. Cells were stained with an antibody to BrdU and with DAPI (VectorLabs, Burlingame, CA) to visualize nuclei. Images were acquired using a Leica DMR epifluorescence microscope using OpenLab imaging software (Improvision, PerkinElmer, Waltham, MA).

C2C12 cells [3] = assay: Transwell cell migration assay; conditions: C2C12 trans-well, 5 hours, PD 50 µM, NVP 100 nM; for Effect of inhibitor on EB induced migration: EB 100 nM
Method: E-peptide effects on cell migration were tested using a 24-well Transwell (8.0 µm pore size) plate assay (Corning Inc., Lowell, MA). C2C12 cells (2×10^4) were seeded in the upper chambers in serum-free media, and synthetic E-peptides in serum-free media were placed in the bottom chambers. Cells were allowed to migrate for 5 hours. Non-migrated cells remaining in the upper chamber were removed from the transwell membranes with Q-tips and migrated cells were fixed with 4% formaldehyde and stained with DAPI. The transwell membranes were mounted onto slides, and imaged at 10× using above-mentioned microscopy and analysis software. For MAPK signaling or IGF-IR inhibition, PD (50 µM) or NVP (100 nM) was added to both chambers at the start of the experiment.

[4] = test system: Akt phosphorylation in C2C12 cells; assay: Akt phosphorylation immunoblot; conditions: C2C12, 20 min; EA 1 µM, EB 10 nM, IGF-I 10 nM
Method: as §1, §2

Compound	Effect of IGF-IR inhibitor on ERK1/2 phosphorylation in EA, EB and IGF-I treated cells ([1]; C2C12, NVP 100 nM 90 min before and during 20 min stimulation, EA 1 µM, EB 10 nM, IGF-I 10 nM, vs DMSO, N = 3)	Effect of IGF-IR inhibitor on ERK1/2 phosphorylation in NoTx cells ([1]; C2C12, NVP 100 nM vs DMSO, no stimulation)	Effect of inhibitor on IGF-I induced proliferation (C2C12 cells [2])	Effect of inhibitor on EB induced migration (C2C12 cells [3])	Effect of inhibitor on cell migration in the absence of E-peptides (C2C12 cells [3])	P-ERK1/2 response (in words), without inhibitor ([1]; C2C12, 20 min, EA 1 µM, EB 10 nM, IGF-I 10 nM, DMSO)	P-Akt response (in words) [4]	Proliferation by BrdU positivity on slides (in words) (C2C12 cells [2]; C2C12 on cover slips, EA and Scr 100 nM, EB and IGF 10 nM, N = 5 slides)
Nc1ncnc2c1c(-c1cccc(OCc3ccccc3)c1)cn2[C@H]1C[C@@H](CN2CCC2)C1 [NVP, NVPAEW541]	significantly reduced the ERK1/2 phosphorylation	no change in ERK1/2 phosphorylation	significantly decreased IGF-I induced proliferation	significantly decreased EB induced migration	not affected			
IGF-I: recombinant human IGF-I (Gemini Bio-Products), positive control						increase in both P-Akt and P-ERK1/2	increase in both P-Akt and P-ERK1/2	increased C2C12 proliferation
COc1cccc(-c2cc(=O)c3ccccc3o2)c1N [PD, PD 098059]			significantly decreased IGF-I induced proliferation	decrease in EB migration that did not reach significance	not affected			
